Assay results from patent publication US20060293307A1, “Oxazolidinone derivatives as antimicrobials” (priority 2002, published 2006).

system: M. tuberculosis B-125; experiment: MIC against M. tuberculosis strains, agar dilution; type: cell-based, Mycobacterium tuberculosis; conditions: S. No. 11 Mt-, Middle Brook 7H10 + OADC, 37° C., 14-21 days

Q: For `CC[C@H]1OC(=O)[C@H](C)[C@@H](O[C@H]2C[C@@](C)(OC)[C@@H](O)[C@H](C)O2)[C@H](C)[C@@H](O[C@@H]2O[C@H](C)C[C@H](N(C)C)[C@H]2O)[C@](C)(OC)C[C@@H](C)C(=O)[C@H](C)[C@@H](O)[C@]1(C)O` [CLA], which MIC is on record?
A: 16 µg/mL

Q: For `C[C@@H]1CN(c2c(F)c(N)c3c(=O)c(C(=O)O)cn(C4CC4)c3c2F)C[C@H](C)N1` [SPAR], which MIC is on record?
A: ≦0.125 μg/ml

Q: Which MIC does the source give for `CCc1cc(C(N)=S)ccn1` [ETH] here?
A: 2.0 µg/mL

Q: Which MIC does the source give for `NNC(=O)c1ccncc1` [INH] here?
A: 0.06 µg/mL

system: not given; experiment: not given; conditions: not given

Q: For `CC(=O)NC[C@H]1CN(c2ccc(N3CCN(c4ccc([N+](=O)[O-])s4)CC3)c(F)c2)C(=O)O1` [Compound No. 1, (S)—N-[[3-[3-Fluoro-4-[4-(5-nitro-2-thienyl)-1-piperazinyl]phenyl]-2-oxo-5-oxazolidinyl]methyl]acetamide], which melting point is on record?
A: 171 to 174 °C

Q: For `CC(=O)NC[C@H]1CN(c2ccc(N3CCN(c4ccc([N+](=O)[O-])o4)CC3)c(F)c2)C(=O)O1` [Compound No. 4, (S)—N-[[3-[3-Fluoro-4-[4-(5-nitro-2-furyl)-1-piperazinyl]phenyl]-2-oxo-5-oxazolidinyl]methyl]acetamide], which melting point is on record?
A: 191 to 204 °C

Q: Which melting point does the source give for `CC(=O)NC[C@H]1CN(c2ccc(N3CCN(c4ccc(C=O)s4)CC3)c(F)c2)C(=O)O1` [Compound No. 2, (S)—N-[[3-[3-Fluoro-4-[4-(5-formyl-2-thienyl)-1-piperazinyl]phenyl]-2-oxo-5-oxazolidinyl]methyl]acetamide] here?
A: 180 °C (dec.)

Q: Which melting point does the source give for `CC(=O)NC[C@H]1CN(c2ccc(N3CCN(c4ccc(C=O)o4)CC3)c(F)c2)C(=O)O1` [Compound No. 3, (S)—N-[[3-[3-Fluoro-4-[4-(5-formyl-2-furyl)-1-piperazinyl]phenyl]-2-oxo-5-oxazolidinyl]methyl]acetamide] here?
A: 176 °C
